From patent US20250143306A1, “COMBINATION FOR IMPROVING PLANT GROWTH AND/OR YIELD, FORMULATION AND METHOD FOR INCREASING PLANT GROWTH, STRESS RESISTANCE, AND YIELDS, AND USE THEREOF” (INSTITUTE OF EXPERIMENTAL BOTANY CAS CR, V.V.I., priority 2022, published 2025)

Assays:
[1] = tested on: wheat (Triticum aestivum) cv. Balitus; experiment: Root and shoot dry weight and total chlorophyll content of wheat under drought stress conditions (Example 2); assay type: in vivo
Method: To investigate the effect of the combinations on the weight parameters, and the total content of chlorophyll, seeds of wheat (Triticum aestivum) cv. Balitus were sown in a hydroponic growing system (Araponics, Liege, Belgium) using Hoagland's solution (control). Twenty days after sowing plants (except for control plants) were sprayed by either MTU (10 μM) or by nitrogen utilization enhancers alone or with a combination of MTU (10 μM) and nitrogen utilization enhancers. The plants were grown in a glasshouse at 20-28° C. under a combination of natural and artificial light. Since the treatment (20 days after sowing), the plants received low water doses. […] The root dry weight (RDW), shoot dry weight (SDW), and total chlorophyll content (TCC) of at least 25 plants were measured at the end of the experiment—45 days after the plants had been sown. RDW and SDW were recorded after drying the plants at 70° C. for 2 days. The chlorophyll content of each plant was measured by SPAD meter reading at the end of the experiment and TCC was calculated as SPAD value per SDW.

[2] = tested on: wheat (Triticum aestivum) cv. Balitus; experiment: Root and shoot dry weight and leaf nitrogen content of hydroponically grown wheat under optimal conditions (Example 1); assay type: in vivo
Method: To investigate the effect of the combinations on the weight parameters, the seeds of wheat (Triticum aestivum) cv. Balitus were sown in a hydroponic growing system (Araponics, Liege, Belgium) using Hoagland's solution (control). Twenty days after sowing, plants (except for control plants) were sprayed by aqueous solution of either MTU (10 μM) or by a nitrogen utilization enhancer alone or by a combination of MTU (10 μM) with the nitrogen utilization enhancer. The plants were grown in the Czech Republic in a glasshouse at 16-25° C. under natural and artificial light during the winter period. The root dry weight (RDW), shoot dry weight (SDW) and the nitrogen content in the leaves of at least 30 plants were measured 45 days after the plants had been sown. RDW and SDW were recorded after drying the plants at 70° C. for 2 days.

Molecule	RDW % of control ([1]; concentration 100 mg/L)	RDW (root dry weight) ([1]; concentration 100 mg/L)	SDW % of control ([1]; concentration 100 mg/L)	SDW (shoot dry weight) ([1]; concentration 100 mg/L)	RDW % of control ([1]; concentration 250 mg/L)	RDW (root dry weight) ([1]; concentration 250 mg/L)	SDW % of control ([1]; concentration 250 mg/L)	SDW (shoot dry weight) ([1]; concentration 250 mg/L)	RDW % of control ([2]; concentration 100 mg/L)	RDW (root dry weight) ([2]; concentration 100 mg/L)	SDW % of control ([2]; concentration 100 mg/L)	SDW (shoot dry weight) ([2]; concentration 100 mg/L)	Nitrogen content in the leaves ([2]; concentration 250 mg/L)	RDW % of control ([2]; concentration 250 mg/L)	RDW (root dry weight) ([2]; concentration 250 mg/L)	SDW % of control ([2]; concentration 250 mg/L)	SDW (shoot dry weight) ([2]; concentration 250 mg/L)	other results
O=C(O)CCC(=O)C(=O)O [2-oxoglutarate]	+11.9%	0.75 g	+10.7%	1.35 g	+16.4%	0.78 g	+14.8%	1.4 g	+8.8%	0.87 g	+5.3%	1.60 g	4.67 weight %	+13.8%	0.91 g	+8.6%	1.65 g	TCC % (total chlorophyll content) ([1]; concentration 100 mg/L): 107%; TCC % (total chlorophyll content) ([1]; concentration 250 mg/L): 112%
N[C@@H](CC(=O)O)C(=O)O [Aspartic acid, aspartic acid]	–	–	–	–	+14.9%	0.77 g	+3.3%	1.26 g	–	–	–	–	4.53 weight %	+15.0%	0.92 g	−1.3%	1.50 g	–
CCCCCC(=O)OCCN(CC)CC [DA6, diethyl aminoethyl hexanoate]	–	–	–	–	–	–	–	–	–	–	–	–	–	–	–	–	–	RDW % of control ([1]; concentration 20 mg/L): +13.4%; RDW (root dry weight) ([1]; concentration 20 mg/L): 0.76 g; SDW % of control ([1]; concentration 20 mg/L): +6.6%; SDW (shoot dry weight) ([1]; concentration 20 mg/L): 1.3 g; TCC % (total chlorophyll content) ([1]; concentration 20 mg/L): 110%; Nitrogen content in the leaves ([2]; concentration 25 mg/L): 4.53 weight %; RDW % of control ([2]; concentration 25 mg/L): +8.8%; RDW (root dry weight) ([2]; concentration 25 mg/L): 0.87 g; SDW % of control ([2]; concentration 25 mg/L): +5.9%; SDW (shoot dry weight) ([2]; concentration 25 mg/L): 1.61 g
NCCCC(=O)O [GABA, γ-aminobutyric acid]	–	–	–	–	–	–	–	–	–	–	–	–	–	–	–	–	–	Nitrogen content in the leaves ([2]; concentration 200 mg/L): 4.82 weight %; RDW % of control ([2]; concentration 200 mg/L): +5.0%; RDW (root dry weight) ([2]; concentration 200 mg/L): 0.84 g; SDW % of control ([2]; concentration 200 mg/L): +4.6%; SDW (shoot dry weight) ([2]; concentration 200 mg/L): 1.59 g
N[C@@H](CCC(=O)O)C(=O)O [Glutamic acid, glutamic acid]	+9.0%	0.73 g	+4.1%	1.27 g	+19.4%	0.8 g	+3.3%	1.26 g	+6.3%	0.85 g	+2.0%	1.55 g	4.56 weight %	+15.0%	0.92 g	+3.9%	1.58 g	–
C[N+](C)(C)CC(=O)[O-] [Glycine betaine, glycine betaine]	–	–	–	–	–	–	–	–	–	–	–	–	–	–	–	–	–	RDW % of control ([1]; concentration 5 g/L): +4.5%; RDW (root dry weight) ([1]; concentration 5 g/L): 0.70 g; SDW % of control ([1]; concentration 5 g/L): +7.4%; SDW (shoot dry weight) ([1]; concentration 5 g/L): 1.31 g; TCC % (total chlorophyll content) ([1]; concentration 5 g/L): 110%
CC(=O)N1CSCC1C(=O)O (centres unmarked) [NATCA, N-acetyl thiazolidine 4-carboxylic acid]	+11.9%	0.75 g	+9.8%	1.34 g	–	–	–	–	+12.5%	0.9 g	+7.2%	1.63 g	–	–	–	–	–	Nitrogen content in the leaves ([2]; concentration 100 mg/L): 4.77 weight %
O=C(O)[C@@H]1CCCN1 [Proline, proline]	–	–	–	–	+7.5%	0.72 g	+4.9%	1.28 g	–	–	–	–	4.69 weight %	+7.5%	0.86 g	+3.3%	1.57 g	–
OP(O)O [[PO3]^3−, phosphite]	–	–	–	–	–	–	–	–	–	–	–	–	–	–	–	–	–	RDW % of control ([1]; concentration 600 mg/L): +16.4%; RDW (root dry weight) ([1]; concentration 600 mg/L): 0.78 g; SDW % of control ([1]; concentration 600 mg/L): +8.2%; SDW (shoot dry weight) ([1]; concentration 600 mg/L): 1.32 g; TCC % (total chlorophyll content) ([1]; concentration 600 mg/L): 105%; Nitrogen content in the leaves ([2]; concentration 600 mg/L): 4.81 weight %; RDW % of control ([2]; concentration 600 mg/L): +18.8%; RDW (root dry weight) ([2]; concentration 600 mg/L): 0.95 g; SDW % of control ([2]; concentration 600 mg/L): +14.5%; SDW (shoot dry weight) ([2]; concentration 600 mg/L): 1.74 g
NC(=O)CC[C@H](N)C(=O)O [glutamine]	+10.4%	0.74 g	+7.4%	1.31 g	+16.4%	0.78 g	+11.5%	1.36 g	+10.0%	0.88 g	+5.3%	1.60 g	4.59 weight %	+12.5%	0.90 g	+6.6%	1.62 g	–
NCC(=O)O [glycine]	+7.5%	0.72 g	+5.7%	1.29 g	+13.4%	0.76 g	+11.5%	1.36 g	+5.0%	0.84 g	+5.9%	1.61 g	4.64 weight %	+7.5%	0.86 g	+8.6%	1.65 g	–
poly-γ-(glutamic acid) [γ-PGA]	–	–	–	–	+9.0%	0.73 g	+2.5%	1.25 g	–	–	–	–	4.74 weight %	+5.0%	0.84 g	+6.6%	1.62 g	TCC % (total chlorophyll content) ([1]; concentration 250 mg/L): 112%
